# Test results as given in patent publication US5733904A, “Method for prevention and treatment of viral infectious diseases for viral suppression” (priority 1996, dated 1998).
# Legend:
# HIV-1 = experiment: Comparison of suppressive activity of HIV proliferation with FAS and other anti-HIV drugs (syncytium formation); type: cell-based; conditions: for IC50: Human immunodeficiency virus 1, FIG. 5, approximate, read-out: 50% inhibitory concentration, syncytium formation
# Procedure: Comparison of suppressive activity of HIV proliferation with FAS and other anti-HIV drugs.
# Experiments were conducted by the same method as in Example 3.
# The medicaments used in this experiment were compounds of the present invention (FAS, and a compound of formula [I] where R^1 is hydroxy as in the above-mentioned Japanese Patent Unexamined Publication No. 61-152658), ddI (Sigma Corp.) and AZT (Sigma Corp.) which are used as medicaments for the treatment of AIDS, and dextran sulfate (Sigma Corp.).
# rabbit platelets = experiment: Platelet aggregation; type: cell-based, rabbit (male, Japanese white); conditions: for Platelet aggregation rate, ADP: ADP 5 μM, control 66.3 ± 1.4; for Platelet aggregation rate, ADP / Platelet aggregation rate, Collagen: N=4, mean ± S.E.; for Platelet aggregation rate, Collagen: collagen 5 μg/ml, control 82.3 ± 1.6
# Procedure: Rabbits (male, Japanese white, body weight 2-3 kg, Oriental Yeast Co.) were used. Blood was collected from an ear vein, a 1/10 volume of 3.8% sodium citrate was added thereto, and the mixture was centrifuged at 1,000 rpm for 10 minutes.
# The supernatant separated by this action was designated platelet rich plasma (PRP), and the precipitate was further centrifuged at 3,000 rpm for 10 minutes to obtain a further supernatant, which was designated platelet poor plasma (PPP).
# The number of platelets in the PRP was adjusted to 3×10^5 plate/μl by adding the PPP. A test sample was added to the PRP. After 1 minute, a prepared aqueous solution of ADP (adenosine diphosphate, Sigma Corp.) was added at the final concentration of 5 μM, or an aqueous solution of collagen (Sigma Corp.) was added at the final concentration of 5 μg/ml. The agglutination reaction was measured by using an agglico meter (NBS HEMA TRACER VI). The inhibition rate was calculated by comparing the maximum optical transmittance in samples with the compound to the maximum optical transmittance in samples with a physiological saline.
# The compounds used were compounds of the present invention (FAS, and the compound of formula [I] where R^1 is hydroxy (Japanese Patent Unexamined Publication No. 61-152658) and adenosine (Sigma Corp.).
# [1] = tested on: Herpes simplex virus type I; experiment: Inhibitory action for plaque formation of Herpes simplex virus type I; type: cell-based; conditions: mean of two, control 51
# Procedure: (§1) Experiments were performed according to a method described in Antiviral Chemistry and Chemotherapy, 5 (6), 366-371, 1994 and Experimental Virology, Ed. by NIH Japan alumni assoc., Maruzen Publ. 1982, p. 65-78 or p. 331-340.
# (§2) Vero cells cultured in the medium (Dulbecco's modified MEM added with 10% FBS) were detached by trypsin (Sigma Corp.). The detached cells were suspended by 2×10^5 cells/ml in the same medium, and placed in the wells of a 48 hole plate. The plate was incubated at 37° C. under 5% CO2 for about one day to complete a full-sheet of the cells in all wells. After incubation, cultured supernatant was removed. A solution (50 μl) containing the compound diluted with 4-fold stepwise dilution by virus culture medium (MM: Dulbecco's modified MEM added with 2% FBS), was added thereto.
# (§3) A viral solution, 50 μl, in which the number of virus (parainfluenza virus or Herpes simplex virus type I) was adjusted to about 50 pfu (plaque forming unit)/50 μl by MM, was added to each well. MM 400 μl containing 1% methylcellulose was added in each well to provide a compound-added test group. A control group was prepared by adding the viral culture medium without adding the test compound.
# (§4) The groups were incubated at 37° C. under 5% CO2 for three days to form plaques and the number of plaques in each well was counted.
# (§5) The test compounds were FAS, and the compound of formula [I] where R^1 is hydroxy. The final concentration of the compound in the solution was set to 100, 25, 6.3 and 1.6 μg/ml, respectively. Each test group included 2 wells and a mean of the plaque numbers was obtained.
# rabbit plasma = experiment: Blood coagulation time (APTT, PT); parameters: species or system rabbit (male, Japanese white); conditions: for PT / APTT: N=4, mean ± S.E.; for PT: control 5.8 ± 0.1; for APTT: control 21.2 ± 0.5
# Procedure: a) Blood coagulation time:
# Rabbits (male, Japanese white, body weight 2-3 kg, Oriental Yeast Co.) were used. […] After adding the test compound to the resultant plasma, activated partial thromboplastin time (APTT) and prothrombin time (PT) were measured by using a coagulometer (Coagtec, Coagtec TE600, EMRA; KC-10A, Baxter).
# parainfluenza virus = experiment: Inhibitory action for plaque formation of parainfluenza virus; type: cell-based; conditions: mean of two, control 51.5
# Procedure: as §1, §2, §3, §4, §5
# Acute toxicity in mice = experiment: Acute toxicity in mice; parameters: species or system mouse (Slc: ddy, 5 weeks); conditions: mouse, in vivo, iv, i. v., male
# Procedure: Acute toxicity of the compounds of the present invention were conducted on rats and mice, and low toxicity was confirmed.
# [2] = tested on: Env (gp120) protein, HIV-1 infected MOLT-4 cells; experiment: Suppressive action on expression of Env (gp120) protein on the surface of cells; type: cell-based; conditions: FIG. 3; Env positive cells after 5 days
# Procedure: (Suppressive action on expression of Env (gp120) protein on the surface of cells.)
# Cells obtained by culturing MOLT-4 (culture condition: 37° C., 5% CO2 /95% air, RPMI medium (GIBCO Corp.) containing 10% FBS) were adjusted to a preferable number of cells (1×10^5 cells/50 μl ). The cell suspension, 50 μl, (infected with MOLT-4 and HIV-1: M.O.I.=1.0) was put in a 96 hole microplate and cultured for 1 hour to infect the cells.
# A solution of the compound shown below, 100 μl, was added in each well and cultured for 5 days. The cultured solution was transferred into a plastic tube (Eppendorf Corp.) and centrifuged to collect the cells. The cells were treated with mouse anti-Env gp120 monoclonal antibody (Replingen Inc.) as a primary antibody and FITC (Fluorescein Isothiocyanate) labelled goat anti-mouse IgG (Cappel Corp.) as a secondary antibody to fluoresce. The number of fluorescent cells was fluoroscopically calculated by counting fluorescent cells according to an indirect fluorescent antibody technique (Techniques in HIV Research, Ed. A. Aldoriny and B. D. Walker, Stokton Press, New York, 1990).
# Env positive cells (%) was calculated by the following equation:
# Env positive cells (%)=(FITC) positive cells/total cells)×100
# Compounds: FAS, H-7 and KN-62.
# Control: solution without compound was used.
# HIV = conditions: Antiviral Res., 22: 273-283, 1993; cited from earlier work
# [3] = tested on: HIV-1 (LAV-1) persistently infected MOLT-4 cells with non-infected MOLT-4 cells; experiment: Inhibitory activity of HIV syncytia formation: HIV-1 chronic-phase infection; type: cell-based; conditions: FIG. 2; 48 hours
# Procedure: b) Activity of the medicament on HIV-1 chronic-phase infection:
# Cells obtained by culturing MOLT-4 (culture condition: 37° C., 5% CO2 /95% air, RPMI medium (GIBCO Corp.) containing 10% FBS) were adjusted to a preferable number of cells (1×10^5 cells/50 μl). HIV-1 (LAV-1) preparation, 50 μl was added to the cell suspension, 50 μl and subjected to a mixing culture (infectious condition of HIV-1 to MOLT-4: M.O.I.=1). The infected cell mixture was cultured by exchanging a fresh culture medium every 3 days at a volume rate of 2:5. The culture was continued for more than 1 month to prepare persistent infected cells. The concentration of the persistent infected cells was adjusted to a preferable number of cells (1×10^5 cells/50 μl ) (the persistent infected cell preparation).
# Cell preparation without infection was prepared by culturing MOLT-4 (culture condition: 37° C., 5% CO2 /95% air, RPMI medium (GIBCO Corp.) containing 10% FBS) and adjusting the concentration to a preferable number of cells (1×10^5 cells/50 μl).
# The persistent infected cell preparation, 50 μl, was placed in the wells of a 96 hole microplate and the non-infected cell preparation, 50 μl, was added therein and cultured for 48 hours. Numbers of the formed syncytia were counted microscopically.
# Each compound solution tested was added, 100 μl, at the time of mixing the persistent infected cell preparation with the non-infected cell preparation, to provide the final concentrations shown in FIG. 2 (medicament added test group).
# The no-medicament-added group (control group) was prepared by replacing the compound solution, 100 μl.
# [4] = tested on: HIV-1 (LAV-1 strain) in MOLT-4 cells; experiment: Inhibitory activity of HIV syncytia formation: HIV-1 acute-phase infection; type: cell-based; conditions: for inhibition at 30 µM: Human immunodeficiency virus 1, MOLT-4, in concentrations of 30 μM, 48 hours; for inhibitory effects on syncytia formation: in concentrations of 2.0 μM
# Procedure: a) Activity of the medicament on HIV-1 acute-phase infection:
# Cells obtained by culturing MOLT-4 (American Type Culture Collection ATCC CRL-1582) in RPMI medium (GIBCO Corp.) containing 10% FBS (fetal bovine serum: GIBCO Corp.) (culture condition: 37° C., 5% CO2 /95% air) were prepared to aliquot number of cells (1×10^5 cells/50 μl). The cell suspension, 50 μl and the liquid preparation, 50 μl containing HIV-1 (LAV-1 strain, Wain-Hobson et al., Cell 40: 9-17, 1985) in RPMI medium with 10% FBS were put into each well of a 96 hole microplate and cultured for 48 hours (Infectious condition of MOLT-4 and HIV-1: M.O.I.=4.0).
# Each compound was dissolved in RPMI medium containing 10% FBS at the final concentration as shown in FIG. 1 to prepare the medicament solution. The medicament solution, 100 μl was added to the mixture of MOLT-4 cell preparation and HIV-1 preparation at the time of mixing with MOLT-4 and HIV-1 to prepare the final volume of the liquid, 200 μl. The number of formed syncytia were microscopically counted.
# Tested compounds were: FAS (fasudil hydrochloride, Chem. Pharm. Bull., 40 (3), 770-773, (1992)), C kinase inhibitor H-7 (1-5-isoquinolinylsulfonyl)-2-methyl-piperazine, Sigma Corp.), and calmodulin kinase II inhibitor KN-62 (1-(N,O-bis-[5-isoquinolinylsulfonyl]-N-methyl-L-tyrosyl)-4-phenyl-piperazine, Sigma Corp., Neuroscience Lett., 129, 47 (1991)) .
# The control group without the compound was prepared by replacing the medicament solution, 100 μl.
# Syncytium formation activity was calculated by comparing the syncytia formation in the test group to that of the control group in the following equation.
# Syncytium formation activity=number of syncytia formed in the medicament-added group/number of syncytia formed in the no-medicament-added group.
molecule,measurement,setting,value
"Cc1cn([C@H]2C[C@H](N=[N+]=[N-])[C@@H](CO)O2)c(=O)[nH]c1=O [AZT, 3'-azido-3'-deoxythymidine]",IC50,HIV-1,~50 µM
"Nc1ncnc2c1ncn2[C@@H]1O[C@H](CO)[C@@H](O)[C@H]1O [Adenosine, adenosine]",effect on ADP coagulation and collagen coagulation,rabbit platelets,suppressed ADP coagulation and collagen coagulation
O=S(=O)(c1cccc2c(O)nccc12)N1CCCNCC1 [Compound of the formula [I] (R^1 = OH)],Plaque No.,[1]; 1.6 μg/ml,51
same,Plaque No.,[1]; 6.3 μg/ml,51
same,Plaque No.,[1]; 25 μg/ml,56
same,Plaque No.,[1]; 100 μg/ml,37.5
same,"effect on blood coagulation time (APTT, PT)",rabbit plasma,no effect on blood coagulation time
same,PT,rabbit plasma; 30 μM,5.6 ± 0.1 s
same,APTT,rabbit plasma; 30 μM,20.2 ± 0.4 s
same,PT,rabbit plasma; 100 μM,5.5 ± 0.1 s
same,APTT,rabbit plasma; 100 μM,20.1 ± 0.4 s
same,Plaque No.,parainfluenza virus; 25 μg/ml,59
same,Plaque No.,parainfluenza virus; 100 μg/ml,4.5
same,"Platelet aggregation rate, ADP",rabbit platelets; 10 μM,63.0 ± 2.3%
same,"Platelet aggregation rate, Collagen",rabbit platelets; 10 μM,80.0 ± 1.7%
same,"Platelet aggregation rate, ADP",rabbit platelets; 30 μM,63.8 ± 2.9%
same,"Platelet aggregation rate, Collagen",rabbit platelets; 30 μM,79.3 ± 1.1%
same,"Platelet aggregation rate, ADP",rabbit platelets; 100 μM,64.3 ± 3.8%
same,"Platelet aggregation rate, Collagen",rabbit platelets; 100 μM,81.0 ± 1.2%
same,LD50,Acute toxicity in mice,119 mg/kg
same,inhibitory activity of syncytium formation of HIV-1,HIV-1,inhibited the formation of syncytium of HIV-1
"CC1CNCCN1S(=O)(=O)c1cccc2cnccc12 (centres unmarked) [H-7, 1-(5-isoquinoryl-sulfonyl)-2-methyl-piperazine]",inhibitory activity for Env expression,[2],no significant inhibitory activity for Env expression
same,effectiveness against HIV infectious disease,HIV,has not been found to be clearly effective
same,inhibitory activity for syncytium formation,[3],no inhibitory activity for syncytium formation
same,inhibition at 30 µM,[4],~50%
same,inhibitory effects on syncytia formation,[4],no inhibitory effects were observed
"CN([C@@H](Cc1ccc(OS(=O)(=O)c2cccc3cnccc23)cc1)C(=O)N1CCN(c2ccccc2)CC1)S(=O)(=O)c1cccc2cnccc12 [KN-62, 1-(N,O-bis-[5-isoquinolinylsulfonyl]-N-methyl-L-tyrosyl)-4-phenyl-piperazine]",inhibitory activity for Env expression,[2],weak inhibitory activity for Env expression
same,inhibitory activity for syncytium formation,[3],no inhibitory activity for syncytium formation
same,inhibition at 30 µM,[4],~75%
same,inhibitory effects on syncytia formation,[4],no inhibitory effects were observed
"OC[C@@H]1CC[C@H](n2cnc3c(O)ncnc32)O1 [ddI, 2', 3'-dideoxyinosine]",IC50,HIV-1,~100 µM
Heparin,"effect on blood coagulation time (APTT, PT)",rabbit plasma,clearly extended APTT and PT
